Test results reported in patent US6211209A, “Method of inhibiting connective tissue degradation” (Warner-Lambert Company, priority 1998, dated 2001).

Assays:
[1] = system: bovine nasal cartilage; assay: Bovine nasal cartilage assay: inhibition of IL-1β-induced proteoglycan loss (chondroitin sulfate by 1,9 DMB); type: cell-based; details: Bos taurus; concentration preventing 50% of proteoglycan loss; IL-1β-stimulated cartilage plugs
Method: The BNC (bovine nasal cartilage) assay provides a model for evaluating chrondroprotective compounds that block cartilage degradation through inhibition of enzyme activity or by altering the gene expression of the matrix metalloproteinases such as stromelysin.
The assay is accomplished in two phases. The cartilage plugs are first incubated with IL-1β in the presence of the compounds of the present method. The amount of proteoglycan released is then quantified by measuring chondroitin sulfate present in the media using the 1,9-Dimethylmethylene Blue Assay (1,9 DMB).
Bovine nasal septum is dissected free of surrounding tissue and wiped with 70% alcohol. A sterile cork borer is used to remove 5-mm cartilage disks of 2- to 3-mm thickness. Explants are equilibrated for 96 hours in F-12 supplemented with 10% fetal calf serum (FCS) and antibiotics at 37° C. in a humidified atmosphere of 95% air and 5% CO2. Explants are then rinsed with 1 mL F-12 Nutrient Mixture (without phenol red) in order to remove traces of FCS. Each treatment group is done in triplicate allowing: controls (500 μL F-12 medium +110 μL PBS with 0.1% BSA +7 μL DMSO); IL-1β (500 μL F-12 medium without phenol red +100 μL IL-1β (500 U) +7 μL DMSO +10 μL PBS with 0.1% BSA); and dose responses (10, 1, and 0.1 μM) (F-12 medium without phenol red +100 μL IL-1β (500 U) +7 μL compound dissolved in DMSO +10 μL PBS with 0.1% BSA), to be tested per each 24-well plate. The cartilage plugs are incubated in the presence of conditioned media (IL-1β+compound) for 48 hours. Fresh unconditioned media (no IL-1β or compound) is added and incubated for an additional 24 hours. Both the conditioned and unconditioned media are collected and saved for analysis using the 1,9 DMB assay.
The ability of a compound to inhibit proteoglycan released from the cartilage plugs is quantified by measuring chondroitin sulfate. This is done using the calorimetric 1,9 DMB assay. Depending on the amount of chondroitin sulfate present in the media a color change will occur turning the normally deep blue dye, vivid pink. This color change is measured using a Titertek Multiscan MCC 340 plate reader at 540 nm. A Cetus Pro/Pette is used to speed dilution and pipetting steps. The Cetus uses Sarstedt vials, designed for radioimmune assays, which have been inserted into Sarstedt 96-vial aluminum racks. The first row of 12 slots is left empty in order to accommodate the chondroitin sulfate standards (0.01-0.32 μg/mL shark chondroitin sulfate in 0.1 M phosphate buffer, pH 7.0, containing 0.01 M L-cysteine HCl and 0.05 M EDTA). It is necessary to dilute (1:5, 1:10) the medium before a […] is performed by adding 10 μL of collected media to 290 μL DMF (16 mg dye/1 L of 0.1 M formate buffer, pH 3.5, containing 5 mL ethanol) and reading at […]. Dilutions are performed on both the 48-hour and 72-hour media samples collected and saved earlier. Once the experiment has been completed, in order to determine the total amount of proteoglycan remaining in the plugs, they are subjected to papain digestion. Cartilage explants are digested in 20-mL glass scintillation vials by adding 50 μL papain in 1.0 mL cysteine buffer (0.01 M phosphate buffer, pH 7.0 containing 0.01 M L-cysteine HCl and 0.05 M EDTA). Digested material is diluted (1:60) and chondroitin sulfate values determined using the 1,9 DMB assay.
Determination of chondroitin sulfate in each sample is accomplished by subtracting the constant value determined from the linear regression performed on the standard curve, from the O.D. value for a particular well, and then dividing by the X coefficient calculated from the linear regression done on the standard curve. Each experimental well is split into two samples for determining chondroitin sulfate values, then the two are averaged. […]

[2] = system: cartilage; assay: Rabbit model of IL-1α-induced cartilage degradation (intra-articular injection, knee joint); type: in vivo; details: for Proteoglycan Loss (% Control): 24 hours (IL-1α alone 35.40 ± 3.12)
Method: Rabbits (3.0-3.2 kg) were obtained from Hazelton (Denver, Pa.); Xylazine from W. A. Butler (Columbus, Ohio); Rompun from Miles Inc, (Shawnee Mission, Kans.); Ketamine HCl from Aveco (Fort Dodge Labs, Fort Dodge, Iowa); Pentobarbital from Western Medical Supply (Acadia, Calif.); human recombinant Interleukin-1α (IL-1α) from Genzyme (Cambridge, Mass.); Cetus Pro/Pette (Perkin Elmer, Norwalk, Conn.); Biomek 1000 (Beckman, Fullerton, Calif.).
The assay was performed in two phases. The hind leg knee joints were first injected with IL-1α and compound for 24 hours. The proteoglycan content of cartilage was then quantified by measuring chondroitin sulfate present using the 1,9-Dimethylmethylene Blue Assay (DMB).
Each treatment was done in quadruplicate, necessitating twelve animals per study. Rabbits were anesthetized by injecting intramuscularly 0.9 mL Rompun combined with 1.8 mL Ketoset. Hind leg knee area was shaved and wiped with 70% EtOH and both drug and IL-1α were injected intra-articulary (27-gauge needle) in succession.
0.5 mL DMSO/Saline and 0.5 mL PBS/0.2% FCS.
0.5 mL DMSO/Saline containing 8 μg Compound 1 and 2500 U/0.5 mL IL-1α.
0.5 mL DMSO/Saline containing 8 μg Compound 1 and 0.5 mL PBS/0.2% FCS.
0.5 mL DMSO/Saline containing 24 μg Compound 1 and 0.5 mL IL-1α.
0.5 mL DMSO/Saline containing 24 μg Compound 1 and 0.5 mL PBS/0.2% FCS. […]
The ability of a compound to inhibit proteoglycan release from cartilage pieces was quantified by measuring chondroitin sulfate. […] This color change was measured using a Titertek Multiscan MCC 340 plate reader at 540 nm. […] The DMB assay was performed by adding 10 μL of samples to 290 μL DMB (16 mg dye/L of 0.1 M formate buffer, pH 3.5, containing 5 mL ethanol) and reading at 540 nm. Once the experiment was completed the total amount of proteoglycan remaining in the cartilage pieces was determined by digesting cartilage samples with papain and then performing 1,9 DMB assay on the digest. […] Digested material was diluted (1:5, 1:10, 1:20) and chondroitin sulfate values determined using the 1,9 DMB assay.

- IC50 [1]: 830 nM
Structure (SMILES): S=c1[nH]nc(-c2ccccc2Nc2ccccc2)o1 [Compound 1, 5-(2-Phenylamino-phenyl)-3H-[1,3,4]oxadiazole-2-thione]
- Proteoglycan Loss (% Control) ([2]; 8 μg/jt with IL-1α): 18.78 ± 10.98 % Control
- Proteoglycan Loss (% Control) ([2]; 24 μg/jt with IL-1α, * significantly different from IL-1α alone): 9.35 ± 7.26 % Control
- inhibiting cartilage degradation ([2]; 8 and 24 μg/joint, 24 hours): effective in inhibiting cartilage degradation in a dose-dependent manner
